Assay results from patent US20100120708A1, “Combination therapy comprising ZD6474 and gemcitabine for anti-cancer therapy” (priority 2002, published 2010).
Several values for one entry are separate records, joined by “and”; a condition that tells them apart may be missing. Identical values can stand only once. Counter-ions that a name gives are not always drawn.

Tested on: L 3.6 μl human pancreatic cancer cells
Assay: Effects of ZD6474 and gemcitabine therapy on primary pancreatic tumour growth and metastases growing orthotopically in nude mice
Type: in vivo
Settings: sacrificed day 32, ZD6474 50 mg/kg oral daily, gemcitabine 100 mg/kg i.p. twice weekly; for Incidence Pancreas (incidence of pancreatic tumours): orthotopic injection into pancreas, treatment from 8 days post-tumour injection; for Incidence Pancreas (incidence of pancreatic tumours) / LN Met (incidence of lymph node metastases) / Liver Met (incidence of liver metastases) / Peritoneal Carcinosis (incidence): animals affected/animals in group; for LN Met (incidence of lymph node metastases) / Liver Met (incidence of liver metastases) / Peritoneal Carcinosis (incidence): orthotopic; for Tumour Weight Average +/− std dev: primary pancreatic tumour weight, control 1231 mg; for Body Weight Average +/− std dev: control 21.4 g
Experimental: Model to Investigate Effects of ZD6474 and Gemcitabine Therapy on Primary Pancreatic Tumour Growth and Metastases Growing Orthotopically in Nude Mice
Nude mice (n=10 per group) were injected with 1×10^6 […] human pancreatic cancer cells into the pancreas. The mice received one of the following treatment regimes 8 days post-tumour injection:
Group 1—control group received saline by daily oral application; Group 2—a single daily dose of ZD6474 (50 mg/kg oral gavage); Group 3—gemcitabine twice weekly (on days 2 and 5 of each treatment week) (100 mg/kg by intraperitoneal injection (i.p.)); Group 4—a single daily dose of ZD6474 (50 mg/kg oral gavage) and twice weekly gemcitabine (on days 2 and 5 of each treatment week) (GEM: 100 mg/kg i.p.).
The animals were sacrificed 32 days after tumour cell injection.
The incidence of pancreatic tumours, liver metastases, lymph node metastases and peritoneal carcinosis was evaluated. The primary pancreatic tumour weight was measured. All macroscopically enlarged lymph nodes and liver nodules were confirmed by histopathology (H&E staining).

Compound | Incidence Pancreas (incidence of pancreatic tumours) | LN Met (incidence of lymph node metastases) | Liver Met (incidence of liver metastases) | Peritoneal Carcinosis (incidence) | Tumour Weight Average +/− std dev | Tumour Weight Average +/− std dev (listed as gemcitabine) | Body Weight Average +/− std dev
Nc1ccn([C@@H]2O[C@H](CO)[C@@H](O)C2(F)F)c(=O)n1 [Gemcitabine, 2′-deoxy-2′,2′-difluorocytidine monohydrochloride (β-isomer)] | 9/9 | 9/9 | 4/9 | 3/9 | 836 ± 291 mg | 836 mg | 21.7 ± 2.1 g
COc1cc2c(Nc3ccc(Br)cc3F)ncnc2cc1OCC1CCN(C)CC1 [ZD6474, 4-(4-bromo-2-fluoroanilino)-6-methoxy-7-(1-methylpiperidin-4-ylmethoxy)quinazoline] | 10/10 | 3/10 | 1/10 | 1/10 | 541 mg and 541 ± 201 mg |  | 19.2 ± 2.9 g
